{"source": "patent US10064843B2", "about": "“Bis-amide derivative and use thereof” (University-Industry Cooperation Group of Kyung Hee …, priority 2013, dated 2018)", "key": {"CypA": {"molecular_target": "T1, CypA (Homo sapiens, UniProt P62937)", "T1 construct": "GST (N, cleaved yes); made in house; host or cells: E. coli (pGEX-KG)", "T1 sequence (P62937 whole entry)": "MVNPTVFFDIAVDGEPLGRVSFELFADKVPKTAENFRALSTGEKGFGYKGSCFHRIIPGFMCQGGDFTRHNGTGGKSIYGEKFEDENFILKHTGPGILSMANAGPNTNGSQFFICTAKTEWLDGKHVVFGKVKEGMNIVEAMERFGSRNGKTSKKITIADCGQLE", "assay": "SPR binding of WJCPA-126 or CsA to CypA", "procedure": "Example 4: Molecular Docking Analysis by Surface Plasmon Resonance (SPR)\nCypA protein was fixed on the sensor chip surface via free amine coupling by injecting a mixture of 0.1 M 1-ethyl-3-(3-dimethylaminopropyl) carboimidehydrochloride and 0.05 M N-hydroxysuccinimide thereon, and the extra activated carboxylic acid was inhibited using 1M ethanolamine (pH 8.5). The second reference cell was treated similarly while excluding the target protein. All working peptide dilutions were prepared in running buffer (PBS containing 0.2% DMSO) and injected at a rate of 30 μL/min for 3 minutes (association time) and dissociation phase was performed for 3 minutes. Nonspecific background was substracted from each sensogram using SPR_V4017 data collection and alignment program (Reichert, Depew, N.Y.). […] Optimum kinetic parameters were obtained by global fitting analysis using Scrubber2 (Biologic Software, Australia)."}, "CypB": {"molecular_target": "T2, CypB (Homo sapiens, UniProt P23284)", "T2 construct": "GST (N); made in house; host or cells: E. coli (pGEX-KG)", "T2 sequence (P23284 34-216, species assumed)": "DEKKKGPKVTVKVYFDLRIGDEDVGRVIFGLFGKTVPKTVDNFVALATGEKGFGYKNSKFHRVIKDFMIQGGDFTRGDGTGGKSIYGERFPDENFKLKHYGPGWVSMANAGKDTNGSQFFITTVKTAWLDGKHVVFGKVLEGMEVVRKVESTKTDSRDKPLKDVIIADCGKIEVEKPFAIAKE", "assay": "SPR binding of WJCPA-126 to CypB", "conditions": "SPR-based kinetic analysis"}, "HCV replicon cells": {"tested_on": "HCV replicon cells", "assay": "Western blot of NS5A and NS5B in HCV replicon cells (total lysate, membrane fraction)", "format": "cell-based, hepatitis C virus", "procedure": "Example 10: Preparation of a Membrane Fraction\nCells grown to about 80% confluence in a culture dish with a diameter of 10 cm were scraped using PBS. The cells were pelleted by centrifugation at 220 g for 10 minutes. The pellet was resuspended in 1 mL hypotonic buffer (10 mM Tris-HCL pH 7.5, 10 mM KCL, 1.5 mM MgCl2, 0.5 mM PMSF (phenylmethylsulfonyl fluoride), and 2 μg/mL leupeptin), and incubated at 4° C. for 10 minutes. The suspension was homogenized using 75 strokes of a glass dounce homogenizer using a tight-fitting pestle (Sigma, St. Louis, Mo., USA). Nuclei and undestroyed cells were removed by centrifugation at 220 g for 10 minutes at 4° C. The cell membrane in the thus-obtained supernatant was directly centrifuged at 68,000 g for 1 hour at 4° C. using an ultracentrifuge tube in a micro-ultracentrifuge (Hitachi, Japan). Upon centrifugation, the coarse replication complex fraction was recovered from the pellet and used for western blot analysis.\nExample 14: Western Blot Analysis\nCell extracts were separated by SDS-PAGE and then transferred to a nitrocellulose membrane. After blocking, the membrane was incubated with indicated primary antibody and subsequently incubated with secondary antibody. The samples were detected with enhanced chemiluminescence reagents (Santa Cruz, Calif., USA)."}, "in vitro": {"assay": "in vitro", "format": "cell-based, hepatitis C virus", "conditions": "genotype 1b Con1b; FIG. 11a", "procedure": "(§1) The effect of WJCPA-126 was determined in percentage of fluorescent cells in each image using sub-genotype 1b replicated cells. EC50 and CC50 were determined via nonlinear regression analysis using GraphPad Prism (GraphPad Software). The GFP expression level was quantitated and shown in the left panel. The images of GFP at the level of replicated cells were obtained while increasing the concentration of WJCPA-126 and are shown on the right panel."}, "[1]": {"tested_on": "genotype 1b (Con1b) replication cells", "assay": "microbe, parasite or virus in culture", "format": "cell-based, hepatitis C virus", "conditions": "Hepatitis C virus", "procedure": "as §1"}, "[2]": {"molecular_target": "T3, GST-CypA and NS5A or NS5B (Homo sapiens, UniProt P62937)", "T3 construct": "made in house; host or cells: E. coli (pGEX-KG)", "T3 sequence (P62937 whole entry)": "as the sequence (P62937 whole entry) above", "assay": "GST pull-down assay of CypA with NS5A or NS5B", "format": "binding", "conditions": "2 μM and 4 μM; FIG. 12b", "procedure": "Example 15: Expression and Purification of GST Proteins\nA plasmid pGEX-KG was used for the expression of recombinant proteins in E. coli. GST-CypA, a mutant GST-CypAR55A (a mutation at PPIase site), GST-CypB, GST-NS5A, and the full length GST-NS5B were prepared by a standard replication process. The bacteria expression vector, pGEX-KG, was transformed into TOPIOF cells (Promega, Madison, Wis., USA). The bacteria culture was grown in LB medium containing 100 μg/mL of ampicillin until the optical density at 600 nm reached 0.8 to 1.0. Then, 0.1 mM isopropyl β-D-1-thiogalactopyranoside (IPTG) was added thereto to induce the expression of a GST fusion protein and incubated further at 30° C. for 4 hours. The resulting bacteria was pelleted by centrifugation at 340 g for 20 minutes at 4° C., resuspended in 10 mL PBST (PBS containing 1% Triton X-100), added with 1 mM PMSF, and subjected to sonication at 25% amplitude with a brake at intervals of 10 seconds for 30 minutes. Upon sonication, the bacteria extract was centrifuged at 340 g for 5 minutes at 4° C. and the supernatant containing GST protein was stored at −80° C. The GST fusion protein was cleaved in thrombin-cleaving buffer containing 50 units of thrombin overnight so that the recombinant proteins could be released from the GST-tagged glutathione resin. […]"}}, "data": [{"molecule": "COc1cc(C(C(=O)NC2CCCCC2)N(C(=O)Cc2c[nH]c3ccccc23)c2ccc(C(C)C)cc2)cc(OC)c1OC", "note": "(stereo not drawn) [WJCPA-126, N-cyclohexyl-2-[(2-1H-indol-3-yl-acetyl)-(4-isopropyl-phenyl)-amino]-2-(3,4,5-trimethoxy-phenyl)-acetamide]", "values": [{"measurement": "Koff (dissociation rate)", "setting": "CypA; SPR", "result": "6.0×10^−4 S^−1"}, {"measurement": "Kon", "setting": "CypA; SPR", "result": "8.2×10^3 M^−1 S^−1"}, {"measurement": "Kd", "setting": "CypA; SPR-based kinetic analysis, CypA", "result": 520, "unit": "nM"}, {"measurement": "Kd", "setting": "CypB", "result": 2100, "unit": "nM"}, {"measurement": "levels of NS5A and NS5B proteins", "setting": "HCV replicon cells; 0.5 μM to 4 μM, FIG. 10a", "result": "decrease in the levels of NS5A and NS5B proteins in a dose-dependent manner"}, {"measurement": "NS5A and NS5B protein levels in total lysate and membrane fraction", "setting": "HCV replicon cells; 2 μM, HCV Con1b replicon cells, FIG. 10b", "result": "decrease the protein levels of NS5A and NS5B in both the total lysate and the membrane fraction"}, {"measurement": "CC50", "setting": "in vitro", "result": "12400 ± 2100", "unit": "nM"}, {"measurement": "EC50", "setting": "[1]", "result": "730 ± 100", "unit": "nM"}, {"measurement": "binding between GST-CypA and NS5A or NS5B", "setting": "[2]", "result": "significant decrease of the binding between GST-CypA and NS5A or NS5B"}]}]}
